Results taken from patent US20030235646A1, “Method for improving quality of meat by supplementing pig diets and concentrates used therefor” (Lonza Inc., priority 2002, published 2003).

Tested on: finishing pigs
Assay: Carcass characteristics of finishing pigs fed Carnitine and Paylean (Example 2)
Assay type: in vivo
Settings: for Drip loss / Hue angle / L* / Saturation index / Temperature 5 min / Temperature 15 min / Temperature 45 min / Temperature 1.5 h / Temperature 3 h / Temperature 6 h / a* / a*/b* / b* / pH 0 min / pH 5 min / pH 15 min / pH 45 min / pH 1.5 h / pH 3 h / pH 6 h / pH 24 h / Firmness / Marbling / Visual cobra: Paylean 0 g/ton; for Firmness / Marbling / Visual cobra: score 1 to 5
Protocol: Because of the dramatic and potentially economically important changes in pork quality observed in the data of Example 1, a second trial was conducted to confirm these observations. This experiment was conducted in the same facility as Example 1 and used the same diet in Table 1. The primary difference was that the 4.5 g/ton ractopamine level was not included; i.e., only 0 or 9 grams/ton ractopamine was combined with either 0, 25, or 50 ppm of added L-camitine.

## C[N+](C)(C)C[C@H](O)CC(=O)[O-] [Carnitine, L-carnitine]
Carnitine 25 ppm
  Drip loss: 3.07%
  Hue angle: 64.61
  L*: 57.23
  Saturation index: 17.59
  Temperature 5 min: 39.79 °C
  Temperature 15 min: 39.92 °C
  Temperature 45 min: 39.03 °C
  Temperature 1.5 h: 32.87 °C
  Temperature 3 h: 22.12 °C
  Temperature 6 h: 11.28 °C
  a*: 7.58
  a*/b*: 0.48
  b*: 15.86
  pH 0 min: 7.13
  pH 5 min: 6.84
  pH 15 min: 6.60
  pH 45 min: 6.16
  pH 1.5 h: 5.91
  pH 3 h: 5.76
  pH 6 h: 5.70
  pH 24 h: 5.61
  Firmness: 2.44
  Marbling: 1.75
  Visual cobra: 3.10
Carnitine 50 ppm
  Drip loss: 2.73%
  Hue angle: 64.07
  L*: 58.00
  Saturation index: 18.11
  Temperature 5 min: 39.17 °C
  Temperature 15 min: 39.56 °C
  Temperature 45 min: 38.73 °C
  Temperature 1.5 h: 33.17 °C
  Temperature 3 h: 20.89 °C
  Temperature 6 h: 11.22 °C
  a*: 7.93
  a*/b*: 0.49
  b*: 16.27
  pH 0 min: 7.21
  pH 5 min: 6.82
  pH 15 min: 6.58
  pH 45 min: 6.02
  pH 1.5 h: 5.97
  pH 3 h: 5.88
  pH 6 h: 5.70
  pH 24 h: 5.60
  Firmness: 2.34
  Marbling: 1.55
  Visual cobra: 2.90
In pigs fed Paylean
  meat quality: improves meat quality
